Values of other authors as cited in patent US20180273582A1, “SMALL MOLECULE AFFINITY MEMBRANE PURIFICATION SYSTEMS AND USES THEREOF” (UNIVERSITY OF NOTRE DAME, priority 2015, published 2018).

Molecular target: nucleotide binding site (NBS) of antibody
Details: antibody NBS region; from reference [43]; read-out: Kd (binding affinity to the conserved NBS region)

Kd: 1 to 8 µM
Structure (SMILES): O=C(O)CCCc1c[nH]c2ccccc12 [IBA, indole-3-butyric acid]
